# Measurements as given in patent publication US20230146455A1, “TREATMENT OF INFLAMMATORY DISEASES WITH PEPTIDES AND PHARMACEUTICAL COMPOSITIONS” (Yuyu Pharma, Inc., priority 2020, published 2023).
# “And” between values parts separate entries of the source, which are not always exact repeats. Identical values can stand only once. Where a SMILES comes first, the peptide text is derived from it. [ ]: non-standard residue; d: D form. Hyp = O=C(O)[C@@H]1C[C@@H](O)CN1
# How the values were obtained:
# Type in all cases: cell-based, human
# [1] = test system: MMP-3; experiment: Example 8 main study Luminex, LPS hPBMCs: MMP-3; settings: for MMP-3 Concentration: single replicates
# Method: (§1) Human PBMCs were pretreated with YY-101, YDE-011, YDE-043 or reference compound; Xiidra® at various concentration (ranging from […] to 500 nM) for 2 h before stimulation. An equal volume of 0.5% DMSO was used as a vehicle control. Then, the cells were treated with LPS at 5 ug/ml, which was selected based on the pilot study. The supernatants from treated cells were harvested at 24 h and placed in a 96 well for Luminex cytokine & chemokine profiling using a Luminex 200 multiplex assay (Luminex; R&D system, USA).
# (§2) The main study arm with triplicate wells per group in a 24-well plate: • 1. Blank • 2. PBMC: 0.5% DMSO • 3. PBMC+LPS (5 ug/ml) • 4. PBMC+YY-101 500 nM • 5. PBMC+YY-101 50 nM • 6. PBMC+YY-101 5 nM • 7. PBMC+YY-101 0.5 nM • 8. PBMC+LPS (5 ug/ml)+Xiidra® 500 nM • 9. PBMC+LPS (5 ug/ml)+Xiidra® 50 nM • 10. PBMC+LPS (5 ug/ml)+Xiidra® 5 nM • 11. PBMC+LPS (5 ug/ml)+Xiidra® 0.5 nM • 12. PBMC+LPS (5 ug/ml)+Xiidra® 0.05 nM • 13. PBMC+LPS (5 ug/ml)+Xiidra® 0.005 nM • 14. PBMC+LPS (5 ug/ml)+YY-101 500 nM • 15. PBMC+LPS (5 ug/ml)+YY-101 50 nM • 16. PBMC+LPS (5 ug/ml)+YY-101 5 nM • 17. PBMC+LPS (5 ug/ml)+YY-101 0.5 nM • 18. PBMC+LPS (5 ug/ml)+YY-101 0.05 nM • 19. PBMC+LPS (5 ug/ml)+YY-101 0.005 nM • 20. PBMC+LPS (5 ug/ml)+YDE-011 500 nM • 21. PBMC+LPS (5 ug/ml)+YDE-011 50 nM • 22. PBMC+LPS (5 ug/ml)+YDE-011 5 nM • 23. PBMC+LPS (5 ug/ml)+YDE-011 0.5 nM • 24. PBMC+LPS (5 ug/ml)+YDE-011 0.05 nM • 25. PBMC+LPS (5 ug/ml)+YDE-011 0.005 nM • 26. PBMC+LPS (5 ug/ml)+YDE-043 500 nM • 27. PBMC+LPS (5 ug/ml)+YDE-043 50 nM • 28. PBMC+LPS (5 ug/ml)+YDE-043 5 nM • 29. PBMC+LPS (5 ug/ml)+YDE-043 0.5 nM • 30. PBMC+LPS (5 ug/ml)+YDE-043 0.05 nM • 31. PBMC+LPS (5 ug/ml)+YDE-043 0.005 nM
# (§3) Multiplex assay was used to measure 30 cytokines and chemokines. The 1:200 diluted cell supernatant and serial dilution of the standard were dispensed into a 96 well plate at 50 ul/well. Then, the pre-mixed cocktail of antibody-coated magnetic beads was dispensed at 50 ul/well and incubated at room temperature for 2 h in a horizontal orbital microplate shaker at 800±500 rpm. The beads were washed using a magnetic device to prevent loss. The biotin-antibody was dispensed in 50 ul of each well and incubated at room temperature for 1 h in a shaker at 800±500 rpm. After washing, streptavidin-PE was added at 50 ul/well and incubated at room temperature for 30 min in a shaker under the same conditions. Finally, after washing, wash buffer (100 ul/well) was added to the plate and incubated in a shaker for 2 min. The Luminex™ 200 setting were set according to the manufacturer's protocol. The data was calculated with a standard five-parameter logistic nonlinear regression analysis of the data (xPonent software 4.2, USA). Results were presented as concentration (ng/ml or pg/ml).
# [2] = test system: IL-10; experiment: Example 8 main study Luminex, LPS hPBMCs: IL-10; settings: for IL-10 Concentration: individual replicates; for IL-10 Concentration (pg/ml), Mean: mean of replicates
# Method: as §1, §2, §3
# [3] = test system: IL-8/CXCL8; experiment: Example 8 main study Luminex, LPS hPBMCs: IL-8/CXCL8; settings: for IL-8/CXCL8 Concentration: single replicates (1st, 2nd, 3rd)
# Method: as §1, §2, §3
# [4] = PBMC + LPS(5 ug/ml) + YDE043 0.005 nM
# [5] = PBMC + LPS(5 ug/ml) + YDE043 0.05 nM
# [6] = PBMC + LPS(5 ug/ml) + YDE043 0.5 nM
# [7] = PBMC + LPS(5 ug/ml) + YDE043 5 nM
# [8] = PBMC + LPS(5 ug/ml) + YDE043 50 nM
# [9] = PBMC + LPS(5 ug/ml) + YDE043 500 nM
# [10] = at as low as 5 μM, LPS 5 ug/mL 24 hrs
# [11] = PBMC + LPS(5 ug/ml) + test article 0.005 nM
# [12] = PBMC + LPS(5 ug/ml) + test article 0.05 nM
# [13] = PBMC + LPS(5 ug/ml) + test article 0.5 nM
# [14] = PBMC + LPS(5 ug/ml) + test article 5 nM
# [15] = PBMC + LPS(5 ug/ml) + test article 50 nM
# [16] = PBMC + LPS(5 ug/ml) + test article 500 nM
compound,measurement,setting,value
CC(C)C[C@H](NC(=O)[C@H](CCC(N)=O)NC(=O)CNC(=O)[C@@H]1C[C@@H](O)CN1)C(=O)NCC(=O)O [YDE-043] (H-[Hyp]GQLG-OH; N-terminus and C-terminus assumed),"MMP-3 Concentration, Mean",[1]; [4],7677.2 pg/mL
same,MMP-3 Concentration,[1]; [4],7173.5 pg/mL and 7776.9 pg/mL and 8081.3 pg/mL
same,"MMP-3 Concentration, Mean",[1]; [5],7136.1 pg/mL
same,MMP-3 Concentration,[1]; [5],7061.2 pg/mL and 7248.5 pg/mL and 7098.6 pg/mL
same,"MMP-3 Concentration, Mean",[1]; [6],7173.5 pg/mL
same,MMP-3 Concentration,[1]; [6],7098.6 pg/mL and 7248.5 pg/mL and 7173.5 pg/mL
same,"MMP-3 Concentration, Mean",[1]; [7],7424.0 pg/mL
same,MMP-3 Concentration,[1]; [7],7474.3 pg/ml (2×) and 7323.6 pg/ml
same,"MMP-3 Concentration, Mean",[1]; [8],7337.3 pg/mL
same,MMP-3 Concentration,[1]; [8],7701.1 pg/mL and 7398.9 pg/mL and 6911.8 pg/mL
same,"MMP-3 Concentration, Mean",[1]; [9],7311.7 pg/mL
same,MMP-3 Concentration,[1]; [9],7098.6 pg/mL and 7663.2 pg/mL and 7173.5 pg/mL
same,LPS-induced MMP3 (in words),[1]; [10],significantly reduced
same,IL-10 Concentration,[2]; [11],651.0 pg/mL and 806.6 pg/mL and 1134.2 pg/mL
same,"IL-10 Concentration (pg/ml), Mean",[2]; [11],863.9 pg/mL
same,IL-10 Concentration,[2]; [12],436.9 pg/mL and 518.2 pg/mL and 381.9 pg/mL
same,"IL-10 Concentration (pg/ml), Mean",[2]; [12],445.7 pg/mL
same,IL-10 Concentration,[2]; [13],436.9 pg/mL and 491.3 pg/mL and 624.7 pg/mL
same,"IL-10 Concentration (pg/ml), Mean",[2]; [13],517.6 pg/mL
same,IL-10 Concentration,[2]; [14],545.0 pg/mL and 637.8 pg/mL and 558.4 pg/mL
same,"IL-10 Concentration (pg/ml), Mean",[2]; [14],580.4 pg/mL
same,IL-10 Concentration,[2]; [15],571.7 pg/mL and 598.2 pg/mL and 518.2 pg/mL
same,"IL-10 Concentration (pg/ml), Mean",[2]; [15],562.7 pg/mL
same,IL-10 Concentration,[2]; [16],464.2 pg/mL and 545.0 pg/mL and 436.9 pg/mL
same,"IL-10 Concentration (pg/ml), Mean",[2]; [16],482.0 pg/mL
same,LPS-induced IL-10 (in words),[2]; [10],significantly reduced
same,"IL-8/CXCL8 Concentration, Mean",[3]; [11],59062.0 pg/mL
same,IL-8/CXCL8 Concentration,[3]; [11],56206.5 pg/mL and 53607.2 pg/mL and 67372.3 pg/mL
same,"IL-8/CXCL8 Concentration, Mean",[3]; [12],51146.6 pg/mL
same,IL-8/CXCL8 Concentration,[3]; [12],48485.5 pg/mL and 53107.5 pg/mL and 51846.7 pg/mL
same,"IL-8/CXCL8 Concentration, Mean",[3]; [13],52327.4 pg/mL
same,IL-8/CXCL8 Concentration,[3]; [13],55144.2 pg/mL and 51593.2 pg/mL and 50244.9 pg/mL
same,"IL-8/CXCL8 Concentration, Mean",[3]; [14],56067.9 pg/mL
same,IL-8/CXCL8 Concentration,[3]; [14],56540.0 pg/mL and 58269.2 pg/mL and 53394.4 pg/mL
same,"IL-8/CXCL8 Concentration, Mean",[3]; [15],55575.7 pg/mL
same,IL-8/CXCL8 Concentration,[3]; [15],57759.9 pg/mL and 58638.2 pg/mL and 50329.0 pg/mL
same,"IL-8/CXCL8 Concentration, Mean",[3]; [16],51601.8 pg/mL
same,IL-8/CXCL8 Concentration,[3]; [16],51413.7 pg/mL and 49678.2 pg/mL and 53713.6 pg/mL
same,LPS-induced IL-8 (in words),[3]; [10],significantly reduced
